Reference: ChEMBL document CHEMBL1142079, “Quinoline derivative MC1626, a putative GCN5 histone acetyltransferase (HAT) inhibitor, exhibits HAT-independent activity against Toxoplasma gondii” (2007)
Active and inactive are the calls of the source. The calls are words filed in the database; no cut-off is given here.

How the values were obtained:
[1] = molecular target: Histone acetyltransferase GCN5 (Saccharomyces cerevisiae S288c) (UniProt Q03330); assay: Inhibition of Saccharomyces cerevisiae recombinant GCN5 assessed as histone H3 acetylation
Sequence of Histone acetyltransferase GCN5 (Saccharomyces cerevisiae S288c) (Q03330 whole entry): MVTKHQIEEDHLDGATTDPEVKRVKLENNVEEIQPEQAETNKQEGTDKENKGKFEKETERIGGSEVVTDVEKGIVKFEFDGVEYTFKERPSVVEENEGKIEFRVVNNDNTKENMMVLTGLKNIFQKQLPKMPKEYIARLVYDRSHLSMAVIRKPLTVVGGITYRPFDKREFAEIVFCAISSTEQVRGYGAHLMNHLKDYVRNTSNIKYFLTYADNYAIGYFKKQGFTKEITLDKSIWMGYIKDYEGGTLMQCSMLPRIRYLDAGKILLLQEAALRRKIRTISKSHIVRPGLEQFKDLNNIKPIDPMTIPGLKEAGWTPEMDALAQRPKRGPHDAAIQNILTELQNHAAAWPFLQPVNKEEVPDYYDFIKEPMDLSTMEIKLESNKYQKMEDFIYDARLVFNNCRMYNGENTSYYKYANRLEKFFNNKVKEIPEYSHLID

Toxoplasma gondii [2] = assay: Inhibition of Toxoplasma gondii in human foreskin fibroblasts at 100 uM relative to DMSO; type: functional
Toxoplasma gondii [3] = assay: Decrease in acetylated histone H3 levels in Toxoplasma gondii tachyzoites after 3 days by immunoblotting; type: functional, organism-based
Toxoplasma gondii [4] = assay: Inhibition of Toxoplasma gondii in human foreskin fibroblasts relative to DMSO; type: functional, organism-based
Toxoplasma gondii [5] = assay: Effect on apicoplasts in Toxoplasma gondii at 200 uM by DAPI staining relative to DMSO; type: functional

SMILES | Activity [1] | inhibition at 100 µM (Toxoplasma gondii [2]) | Activity (Toxoplasma gondii [3]) | Activity (Toxoplasma gondii [4]) | Activity (Toxoplasma gondii [5])
C=CC/C=C\C/C=C\CCCCCCCc1cccc(O)c1C(=O)O | Active | – | – | – | –
CCOC(=O)c1cc2ccccc2nc1C | inactive | 50% | inactive | Dose-dependent effect | 52%
